Reference: BigSolDB 2.1

CCc1occc(=O)c1O
solubility (mole fraction)
Settings | 293.15 K | 298.15 K | 303.15 K | 308.15 K | 313.15 K | 318.15 K | 323.15 K | 328.15 K | 333.15 K
in ethanol | 0.0599 | 0.0798 | 0.0974 | 0.133 | 0.174 | 0.227 | 0.291 | 0.367 | 0.459
in water | 0.0021 | 0.0023 | 0.0027 | 0.0033 | 0.004 | 0.0051 | 0.0067 | 0.0089 | 0.0126
